Usually EC50 stands for the midpoint of the concentration-response curve. Usually CC50 stands for the concentration at which the toxic effect on the cells reaches its halfway point.

SMILES strings stand for the structures.

The results in this text go back to patent US20250034186A1, “ANTIVIRAL COMPOUNDS” (priority 2020, published 2025).

For one data set, the system named is HRV1a. The experiment in a line: HRV1A HeLa EC50. Format: cell-based, human rhinovirus. To be noted: for EC50: Human rhinovirus sp., HRV1A, HeLa, 96 h, read-out: HRV1A HeLa EC50. The procedure: (§1) H1-HeLa cells, cultured in complete RPMI 1640 medium containing 10% heat-inactivated FBS and 1% Penicillin/Streptomycin, were seeded in 96 well plates at 5000 cells/well one day prior to compound dosing and infection. The antiviral activity of each compound was measured in triplicate. Compounds were added directly to the cell cultures in serial 3-fold dilutions using the HP300 digital dispenser (Hewlett Packard, Palo Alto, CA) immediately prior to infection. The plates were transferred to BSL-2 containment and 100 μL of 1/4000 dilution of HRV1a virus stock was added to each well containing cells and serially diluted compounds. Each plate included 6 wells of infected untreated cells and 6 wells of cells containing 5 μM Rupintrivir that served as 0% and 100% virus inhibition control, respectively. Following the infection, test plates were incubated for 96 h in a tissue culture incubator set to 37° C./5% CO2. Following incubation, the H1-HeLa cells were removed from incubation and allowed to equilibrate to 25° C. Cell viability was determined by removing 100 μL of culture medium and adding 100 μL of Cell-Titer Glo viability reagent. The mixtures were incubated on a shaker for 10 minutes at 25° C., and the luminescence signal was quantified on an Envision luminescence plate reader.

The nature of the next data set: PBMC cytotoxicity assay. Format: cell-based. To be noted: human, cryopreserved PBMCs. Here is the method:
Compounds were tested in a high-throughput 384-well assay format for cytotoxicity in cryopreserved human PBMCs. Compounds were serially diluted (1:3) in 100% DMSO in 384-well plates in quadruplicate. An acoustic dispenser was used to transfer 310 nL of compound into assay plates. DMSO and 2 mM Puromycin were included as negative and positive controls respectively. Cells were diluted in media (RPMI+10% FBS+1% PSG+10 mM Hepes+1% Pyruvate+0.1% BMe) to 72K cells/mL and allowed to rest for 4 hours in an incubator at 37° C. and 5% CO2 before plating into prespotted assay plates at 70 uL/well. After 5 days, 25 μL of Cell Titer Glo was added to the assay plates. […] CC50 values were calculated in Accord (on-line tool) using a one-site dose-response model to generate sigmoidal curve fits.

Another data set can be described thus: MRC5 cytotoxicity assay. It is filed as cell-based. To be noted: human, MRC5 cells. The procedure:
Compounds were tested in a high-throughput 384-well assay format for cytotoxicity in MRC5 cells (human fetal lung fibroblast cell line). Cells were diluted in media (MEM (10-010-CM), 10% FBS, 1% PSG) to 16.6K cells/mL and plated at 90 uL/well into 384 well poly-D-lysine coated assay plates and placed in an incubator at 37° C. and 5% CO2. Compounds were serially diluted (1:3) in 100% DMSO in 384-well plates in quadruplicate. DMSO and 2 mM Puromycin were included as negative and positive controls respectively. 24 hours after cell plating, a 384 channel pipettor was used to transfer 0.4 uL from the compound plate to the assay plate. Assay plates were returned to the incubator. After 5 days, assay plates were washed with 80 uL/well of PBS before addition of 20 μL of Cell Titer Glo. Assay plates were read on the Envision plate reader. […] CC50 values were calculated in Accord (on-line tool) using a one-site dose-response model to generate sigmoidal curve fits.

For another data set, the system named is HRV14. The experiment in a line: HRV14 HeLa EC50. It is filed as cell-based, human rhinovirus. The note with it: for EC50: Human rhinovirus sp., HRV14, H1-HeLa cells, 96 h, 37° C. The procedure: as §1, with “HRV14” for “HRV1a”
The nature of the next data set: PRPT cytotoxicity assay. Format: cell-based. The note with it: human, primary renal proximal tubule epithelial cells (PRPTEC); 5-day incubation. Here is the method:
The PRPT cytotoxicity assays on the compound of Formula I and compounds 1, 2 and 6 were conducted using the following protocol.
Cryopreserved human primary renal proximal tubule epithelial cells (PRPTEC), were obtained from LifeLine Cell Technology (Frederick, MD, Cat #FC-0013) and isolated from the tissue of human kidney. The cells were cultured with RenaLife completed medium (LifeLine, Frederick, MD, Cat #LL-0025) in T75 flask for 3 to 4 days from cryopreserved vial, before the cells were seeded to assay plates after 90% confluence. PRPTEC cells were plated at a density of 5×10^3 cells per well in collagen coated 96-well plate with a final volume of […] per well. On next day, the compound was added to cell plates directly using HP D300 Dispenser (Hewlett-Packard, Palo Alto, CA) with program starting at 200 fold lower than the compound stock concentration, and 1:3 fold dilution in duplicates with constant amount of DMSO equal to 0.5%. After 5-day incubation, culture medium was removed, cell viability was measured by addition of […] per well of CellTiter Glo viability reagent (Promega, Madison, WI, Cat #G7573) and the luminescence signal was quantified on a Luminescence plate reader (Perkin-Elmer, Waltham, MA).

As for `CCOC(=O)[C@H](C)NP(=O)(OC[C@@]1(C#N)O[C@@H](c2ccc3c(N)ncnn23)[C@H](O)[C@@H]1O)Oc1ccccc1` (stereo partly shown) [Compound 1, reference compound], the EC50 in the data set on HRV1a is 0.409 µM; in the data set on HRV14 it was 1 µM. Moreover, the CC50 at 5 days was 18.2 µM in the data set “PBMC cytotoxicity assay” and above 44.4 µM in the data set “MRC5 cytotoxicity assay”.

In the case of `CCC(CC)COC(=O)[C@H](C)NP(=O)(OC[C@@]1(C#N)O[C@@H](c2ccc3c(N)ncnn23)[C@H](O)[C@@H]1O)Oc1ccccc1` (stereo partly shown) [Compound 2, reference compound], the CC50 at 5 days in the data set “PRPT cytotoxicity assay” was 23.8 µM; in the data set “PBMC cytotoxicity assay”, 4.65 µM; in the data set “MRC5 cytotoxicity assay”, above 44.4 µM. The figures for the EC50 with HRV1a and in the data set on HRV14 were 0.097 µM and 0.171 µM, respectively.

Take `CCC(CC)COC(=O)[C@H](C)N[P@](=O)(OC[C@@]1(C#N)O[C@@H](c2ccc3c(N)ncnn23)[C@H](O)[C@@H]1O)Oc1ccccc1` [Compound 6, 2-ethylbutyl ((S)-(((2R,3S,4R,5S)-5-(4-aminopyrrolo[2,1-f][1,2,4]triazin-7-yl)-2-cyano-3,4-dihydroxytetrahydrofuran-2-yl)methoxy)(phenoxy)phosphoryl)alaninate]: the CC50 at 5 days was 42.3 µM in “PRPT cytotoxicity assay”, 4.79 µM in the data set “PBMC cytotoxicity assay” and above 88.4 µM in the data set “MRC5 cytotoxicity assay”.

As for `C[C@H](N[P@](=O)(OC[C@@]1(C#N)O[C@@H](c2ccc3c(N)ncnn23)[C@H](O)[C@@H]1O)Oc1ccccc1)C(=O)OC1CCCCC1` [Formula I, cyclohexyl ((S)-(((2R,3S,4R,5S)-5-(4-aminopyrrolo[2,1-f][1,2,4]triazin-7-yl)-2-cyano-3,4-dihydroxytetrahydrofuran-2-yl)methoxy)(phenoxy)phosphoryl)-L-alaninate], the 50% cytotoxic concentration (CC50) at 5 days in the data set “PRPT cytotoxicity assay” was above 84.4 µM; in “PBMC cytotoxicity assay”, above 31.6 µM; in “MRC5 cytotoxicity assay” it was above 44.4 µM. Also, the “times more potent relative to compound 1, HRV1A HeLa” value in the data set on HRV1a (EC50 ratio vs compound 1) is around 51.1 times. Also, in the data set on HRV1a (EC50 ratio vs compound 2), the “times more potent compared to compound 2, HRV1A HeLa” value is recorded as “about 12.1 times”. The “times more potent relative to compound 3, HRV1A HeLa” value in the data set on HRV1a (EC50 ratio vs compound 3) is “about 91.9 times”. The “times more potent relative to compound 5, HRV1A HeLa” value with HRV1a (EC50 ratio vs compound 5) is “about 203.1 times”. In addition, the EC50 was 0.008 µM in the data set with HRV1a and 0.078 µM with HRV14. Further, the “times more potent relative to compound 1, HRV14 HeLa” value in the data set on HRV14 (EC50 ratio vs compound 1) is around 12.8 times. The “times more potent compared to compound 2, HRV14 HeLa” value with HRV14 (EC50 ratio vs compound 2) is recorded as “about 2.2 times”. The “times more potent relative to compound 3, HRV14 HeLa” value with HRV14 (EC50 ratio vs compound 3) is listed as “about 23.2 times”. The “times more potent relative to compound 5, HRV14 HeLa” value in the data set on HRV14 (EC50 ratio vs compound 5) is listed as “about 44.0 times”.
